# Results taken from US5204364A, “N-imidazolyl- and N-imidazolylmethyl-derivatives of substituted bicyclic compounds” (Farmitalia Carlo Erba, S.r.l., priority 1988, dated 1993).
# Where two headings read alike, the source gives them in different places.
# Tests used:
# [1] = tested on: TxA2 synthase; assay: TxB2 synthesis (TxA2 synthase activity) in whole blood of normal rats during clotting, in vitro; type: cell-based, rat (Sprague Dawley); conditions: Rattus norvegicus, read-out: In vitro effect on TxB2 synthesis in normal rats, IC50
# Procedure: The compounds of formula (I) were for example tested for their ability to inhibit TxA2 synthase activity (as reflected by TxB2 generated in whole blood during clotting) in vitro in the rat.
# The effect of a representative group of compounds according to the present invention on TxB2 synthesis was evaluated in comparison with known products in whole blood of normal Sprague Dawley rats (Charles River Italy). Blood was withdrawn from the abdominal aorta of the animals under light ether anaesthesia. The blood was immediately divided in portions of 0.5 ml and distributed in glass tubes each containing a concentration of the test compound, or of the reference compounds.
# Samples were then allowed to clot for 1 hour at 37° C., centrifuged at 3000 rpm for 10 min, serum collected and stored at -20° C. until assayed.
# [2] = orientative acute toxicity, single oral administration; conditions: in vivo, fasted mice and rats, assessed on the seventh day
# Procedure: The toxicity of the compounds of the invention is negligible, therefore they can be safely used in therapy. Mice and rats which had been deprived of food for nine hours were treated orally with single administrations of increasing doses of compounds of the invention, then housed and normally fed. The orientative acute toxicity (LD50) was assessed on the seventh day after the treatment and e.g. in the compound added as FCE 26572, was higher than 800 mg/kg.
# [3] = whole blood, clotted 1 hour at 37° C., TxB2 by RIA, limits for p = 0.95
Structure (SMILES),"IC50 [1, 3] [nM]",other results
"CC(=O)Oc1ccccc1C(=O)O [ASA, Acetyl salicyclic acid, reference compound]",,IC50 ([1]; 1 h): 31000 nM
"O=C(O)c1ccc2c(c1)C=C(n1ccnc1)CC2 [FCE 22178, 5,6dihydro-7-(1H-imidazol-1-yl)-2-naphthalenecarboxylic acid, reference compound]",1000,
"CC1=C(n2ccnc2)CCc2ccc(C(=O)O)cc21 [FCE 25672, 5,6-dihydro-7-(1H-imidazol-1-yl)-8-methyl-2-naphthalenecarboxylic acid]",290,
"C=C1c2cc(C(=O)O)ccc2CCC1n1ccnc1 (stereo not drawn) [FCE 26252, 5,6,7,8-tetrahydro-7-(1H-imidazol-1-yl)-8-methylene-2-naphthalenecarboxylic acid]",740,
"CC1=C(Cn2ccnc2)CCc2ccc(C(=O)O)cc21 [FCE 26333, 5,6-dihydro-7-(1H-imidazol-1-ylmethyl)-8-methyl-2-naphthalenecarboxylic acid]",43,
CC1=C(n2ccnc2)CCc2ccc(C(=O)O)cc21 [FCE 26572],,LD50 at 168 h [2]: > 800 mg/kg
